# Laboratory results published in patent publication US20140228377A1, “METHYLPIPERIDINE DERIVATIVE” (TAISHO PHARMACEUTICAL CO., LTD., priority 2011, published 2014).
# Where two headings read alike, the source gives them in different places.
# Assays:
# [1] = molecular target: T1, orexin-2 receptor (hOX2R) (Homo sapiens, UniProt O43614); assay: Orexin antagonistic activity assay (intracellular Ca2+, FDSS) in CHO cells expressing hOX2R; assay type: cell-based
# T1 construct: expressed in transfected cells; host or cells: Chinese hamster ovary (CHO) cells
# T1 sequence (O43614 1-444): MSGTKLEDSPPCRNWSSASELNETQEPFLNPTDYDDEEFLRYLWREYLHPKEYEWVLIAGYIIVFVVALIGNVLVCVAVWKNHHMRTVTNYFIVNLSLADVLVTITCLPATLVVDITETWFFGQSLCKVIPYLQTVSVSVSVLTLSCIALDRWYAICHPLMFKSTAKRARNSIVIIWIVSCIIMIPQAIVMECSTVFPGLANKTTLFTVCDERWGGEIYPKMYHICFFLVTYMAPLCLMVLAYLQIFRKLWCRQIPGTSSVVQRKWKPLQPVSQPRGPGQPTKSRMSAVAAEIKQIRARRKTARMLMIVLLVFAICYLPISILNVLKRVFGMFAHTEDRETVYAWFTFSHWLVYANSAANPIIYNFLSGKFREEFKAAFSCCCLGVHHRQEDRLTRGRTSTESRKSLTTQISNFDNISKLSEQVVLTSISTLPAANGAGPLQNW
# Procedure: (§1) The antagonistic activity of each test compound against human orexin-1 receptor (hOX1R) and orexin-2 receptor (hOX2R) was assayed by a modification of a method described in the literature (Toshikatsu Okumura et al., Biochemical and Biophysical Research Communications 280, 976-981, 2001). Chinese hamster ovary (CHO) cells forced to express hOX1R or hOX2R were inoculated at a density of 20,000 cells/well to a 96-well Black clear bottom plate (Nunc) and cultured at 37° C. for 16 hours under 5% CO2 conditions in a Ham's F-12 medium containing 0.1 mM MEM nonessential amino acids, 0.5 mg/ml G418, and 10% fetal bovine serum (all from Invitrogen Corp.). After removal of the medium, 100 μL of a buffer solution for assay (25 mM HEPES (Dojindo Laboratories), Hanks' balanced salt solution (Invitrogen Corp.), 0.1% bovine serum albumin, 2.5 mM probenecid, and 200 μg/ml Amaranth (all from Sigma-Aldrich Corp.), pH 7.4) containing 0.5 μM Fluo-3 AM ester (Dojindo Laboratories) was added to the cells, which were then incubated at 37° C. for 60 minutes under 5% CO2 conditions. After removal of the buffer solution for assay containing Fluo-3 AM ester, each test compound was dissolved at a concentration of 10 mM in dimethyl sulfoxide and diluted with a buffer solution for assay. Then, 150 μL of the solution was added to the cells, which were then incubated for 30 minutes.
# (§2) A ligand peptide (Pyr-[…]NH2; Peptide Institute, Inc.) derived from human orexin-A by the substitution of two amino acids was diluted with a buffer solution for assay to final concentrations of 300 pM for hOX1R and 3 nM for hOX2R. Reaction was initiated by the addition of 50 μL of this ligand solution. The fluorescence intensity of the reaction was measured in each well every second for 3 minutes using Functional Drug Screening System (FDSS; manufactured by Hamamatsu Photonics K.K.), and the maximum fluorescence intensity was used as an index for intracellular Ca^2+ concentration to determine antagonistic activity. The antagonistic activity of the test compound was calculated with fluorescence intensity from a well supplemented with only a diluting buffer solution as 100% and fluorescence intensity from a well supplemented with a buffer solution free from the ligand and the compound as 0%. The 50% inhibitory concentration (IC50 value) was determined on the basis of fluorescence intensity derived from the test compound added at varying concentrations.
# [2] = molecular target: T2, human orexin-1 receptor (hOX1R) (Homo sapiens, UniProt O43613); assay: Orexin antagonistic activity assay (intracellular Ca2+, FDSS) in CHO cells expressing hOX1R; assay type: cell-based
# T2 construct: expressed in transfected cells; host or cells: Chinese hamster ovary (CHO) cells
# T2 sequence (O43613 1-425): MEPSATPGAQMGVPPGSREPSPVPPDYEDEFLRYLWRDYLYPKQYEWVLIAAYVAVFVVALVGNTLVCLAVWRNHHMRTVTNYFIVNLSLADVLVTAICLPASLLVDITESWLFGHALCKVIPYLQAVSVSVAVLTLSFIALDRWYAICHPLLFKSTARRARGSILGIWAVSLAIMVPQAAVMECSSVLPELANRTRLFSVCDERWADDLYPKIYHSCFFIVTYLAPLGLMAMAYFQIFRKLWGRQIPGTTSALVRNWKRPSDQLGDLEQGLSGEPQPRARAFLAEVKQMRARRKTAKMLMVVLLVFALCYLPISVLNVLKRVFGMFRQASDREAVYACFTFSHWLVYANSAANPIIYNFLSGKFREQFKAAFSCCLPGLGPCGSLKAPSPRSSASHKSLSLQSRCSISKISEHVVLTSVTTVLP
# Procedure: as §1, §2
# [3] = CHO cells expressing hOX2R, ligand peptide 3 nM, Fluo-3 maximum fluorescence intensity, read-out: IC50 value OX2
# [4] = CHO cells expressing hOX1R, ligand peptide 300 pM, Fluo-3 maximum fluorescence intensity, read-out: IC50 value OX1
"IC50 [1, 3]","IC50 [2, 4]",SMILES,IC50 [1],IC50 [2]
0.0087 µM,0.0198 µM,"C[C@@H]1CC[C@@H](c2nc3cc(Cl)ccc3o2)CN1C(=O)c1cc(F)ccc1-n1nccn1 (single isomer, unassigned) [Example 2, [(2R*,5R*)-5-(5-Chloro-1,3-benzoxazol-2-yl)-2-methylpiperidin-1-yl][5-fluoro-2-(2H-1,2,3-triazol-2-yl)phenyl]methanone]",–,–
0.0041 µM,0.0181 µM,"C[C@@H]1CC[C@@H](c2nc3cc(Cl)ccc3o2)CN1C(=O)c1ccccc1-n1nccn1 (single isomer, unassigned) [Example 3, [(2R*,5R*)-5-(5-Chloro-1,3-benzoxazol-2-yl)-2-methylpiperidin-1-yl][2-(2H-1,2,3-triazol-2-yl)phenyl]methanone]",–,–
0.0043 µM,0.0031 µM,"Cc1ccc(-c2ncccn2)c(C(=O)N2C[C@H](c3nc4cc(Cl)ccc4o3)CC[C@H]2C)c1 (single isomer, unassigned) [Example 5, [(2R*,5R*)-5-(5-Chloro-1,3-benzoxazol-2-yl)-2-methylpiperidin-1-yl][5-methyl-2-(pyrimidin-2-yl)phenyl]methanone]",–,–
0.0029 µM,0.0545 µM,"C[C@@H]1CC[C@@H](c2nc3cc(Cl)ccc3o2)CN1C(=O)c1cc(F)ccc1-c1ncccn1 (single isomer, unassigned) [Example 6, [(2R*,5R*)-5-(5-Chloro-1,3-benzoxazol-2-yl)-2-methylpiperidin-1-yl][5-fluoro-2-(pyrimidin-2-yl)phenyl]methanone]",–,–
0.002 µM,0.0495 µM,"C[C@@H]1CC[C@@H](c2nc3cc(Cl)ccc3o2)CN1C(=O)c1ccccc1-c1ncccn1 (single isomer, unassigned) [Example 7, [(2R*,5R*)-5-(5-Chloro-1,3-benzoxazol-2-yl)-2-methylpiperidin-1-yl][2-(pyrimidin-2-yl)phenyl]methanone]",–,–
0.0021 µM,0.0007 µM,"Cc1ccc(-c2ncccn2)c(C(=O)N2C[C@H](c3nc4cc(F)ccc4o3)CC[C@H]2C)c1 (single isomer, unassigned) [Example 8, [(2R*,5R*)-5-(5-Fluoro-1,3-benzoxazol-2-yl)-2-methylpiperidin-1-yl][5-methyl-2-(pyrimidin-2-yl)phenyl]methanone]",–,–
–,–,"Cc1ccc(-n2nccn2)c(C(=O)N2C[C@H](c3nc4cc(Cl)ccc4o3)CC[C@H]2C)c1 (single isomer, unassigned) [Example 9, [(2R*,5R*)-5-(5-Chloro-1,3-benzoxazol-2-yl)-2-methylpiperidin-1-yl][5-methyl-2-(2H-1,2,3-triazol-2-yl)phenyl]methanone]",0.0018 µM,0.0012 µM
0.0049 µM,0.0048 µM,"Cc1ccc(-n2nccn2)c(C(=O)N2C[C@H](c3nc4cc(F)ccc4o3)CC[C@H]2C)c1 (single isomer, unassigned) [Example 10, [(2R*,5R*)-5-(5-Fluoro-1,3-benzoxazol-2-yl)-2-methylpiperidin-1-yl][5-methyl-2-(2H-1,2,3-triazol-2-yl)phenyl]methanone]",–,–
0.0437 µM,0.0421 µM,"Cc1ccc(-n2nccn2)c(C(=O)N2C[C@H](c3nc4cc(F)ccc4o3)CC[C@H]2C)n1 (single isomer, unassigned) [Example 11, [(2R*,5R*)-5-(5-Fluoro-1,3-benzoxazol-2-yl)-2-methylpiperidin-1-yl][6-methyl-3-(2H-1,2,3-triazol-2-yl)pyridin-2-yl]methanone]",–,–
0.105 µM,0.111 µM,"Cc1ccc(-n2nccn2)c(C(=O)N2C[C@H](c3nc4ccc(F)cc4o3)CC[C@H]2C)n1 (single isomer, unassigned) [Example 12, [(2R*,5R*)-5-(6-Fluoro-1,3-benzoxazol-2-yl)-2-methylpiperidin-1-yl][6-methyl-3-(2H-1,2,3-triazol-2-yl)pyridin-2-yl]methanone]",–,–
0.013 µM,0.0044 µM,"C[C@@H]1CC[C@@H](c2nc3cc(Cl)ccc3o2)CN1C(=O)c1cc(Cl)ccc1-c1ncccn1 [Example 13, [(2R,5R)-5-(5-Chloro-1,3-benzoxazol-2-yl)-2-methylpiperidin-1-yl][5-chloro-2-(pyrimidin-2-yl)phenyl]methanone]",–,–
0.0088 µM,0.0416 µM,"C[C@@H]1CC[C@@H](c2nc3cc(Cl)ccc3o2)CN1C(=O)c1ccc(F)cc1-n1nccn1 [Example 14, [(2R,5R)-5-(5-Chloro-1,3-benzoxazol-2-yl)-2-methylpiperidin-1-yl][4-fluoro-2-(2H-1,2,3-triazol-2-yl)phenyl]methanone]",–,–
0.0097 µM,0.142 µM,"C[C@@H]1CC[C@@H](c2nc3cc(Cl)ccc3o2)CN1C(=O)c1cccc(F)c1-n1nccn1 [Example 15, [(2R,5R)-5-(5-Chloro-1,3-benzoxazol-2-yl)-2-methylpiperidin-1-yl][3-fluoro-2-(2H-1,2,3-triazol-2-yl)phenyl]methanone]",–,–
0.0036 µM,0.0256 µM,"C[C@@H]1CC[C@@H](c2nc3cc(Cl)ccc3o2)CN1C(=O)c1c(F)cccc1-n1nccn1 [Example 16, [(2R5R)-5-(5-Chloro-1,3-benzoxazol-2-yl)-2-methylpiperidin-1-yl][2-fluoro-6-(2H-1,2,3-triazol-2-yl)phenyl]methanone]",–,–
0.0103 µM,0.0545 µM,"C[C@@H]1CC[C@@H](c2nc3cc(Cl)ccc3o2)CN1C(=O)c1ccc(F)cc1-c1ncccn1 [Example 17, [(2R,5R)-5-(5-Chloro-1,3-benzoxazol-2-yl)-2-methylpiperidin-1-yl][4-fluoro-2-(pyrimidin-2-yl)phenyl]methanone]",–,–
0.0595 µM,0.301 µM,"C[C@@H]1CC[C@@H](c2nc3cc(Cl)ccc3o2)CN1C(=O)c1cccc(F)c1-c1ncccn1 [Example 18, [(2R,5R)-5-(5-Chloro-1,3-benzoxazol-2-yl)-2-methylpiperidin-1-yl][3-fluoro-2-(pyrimidin-2-yl)phenyl]methanone]",–,–
0.0093 µM,0.0837 µM,"C[C@@H]1CC[C@@H](c2nc3cc(Cl)ccc3o2)CN1C(=O)c1c(F)cccc1-c1ncccn1 [Example 19, [(2R,5R)-5-(5-Chloro-1,3-benzoxazol-2-yl)-2-methylpiperidin-1-yl][2-fluoro-6-(pyrimidin-2-yl)phenyl]methanone]",–,–
0.0557 µM,0.108 µM,"C[C@@H]1CC[C@@H](c2nc3cc(Cl)ccc3o2)CN1C(=O)c1cc(C(F)(F)F)ccc1-n1nccn1 [Example 20, [(2R,5R)-5-(5-Chloro-1,3-benzoxazol-2-yl)-2-methylpiperidin-1-yl][2-(2H-1,2,3-triazol-2-yl)-5-(trifluoromethyl)phenyl]methanone]",–,–
0.155 µM,0.211 µM,C[C@@H]1CC[C@@H](c2nc3cc(Cl)ccc3o2)CN1C(=O)c1cc(C#N)ccc1-n1nccn1 [Example 21],–,–

SMILES,"IC50 [1, 3]","IC50 [2, 4]",IC50 [1],IC50 [2]
"Cc1ccc(-c2ncccn2)c(C(=O)N2CC(c3nc4cc(Cl)ccc4o3)CC[C@H]2C)n1 (single isomer, unassigned) [Example 4, [(2R*,5R*)-5-(5-Chloro-1,3-benzoxazol-2-yl)-2-methylpiperidin-1-yl][6-methyl-3-(pyrimidin-2-yl)pyridin-2-yl]methanone]",0.0172 µM,0.0043 µM,–,–
